Non-standard residues stand in square brackets, D forms with d. Residues, ends and D or L forms follow the SMILES beside them. 1Nal = N[C@@H](Cc1cccc2ccccc12)C(=O)O; Nle = CCCC[C@H](N)C(=O)O; Aib = CC(C)(N)C(=O)O
molecular target: T1, RXFP1 (Homo sapiens, UniProt Q9HBX9); test: OVCAR5 cAMP assay (RXFP1 agonist activity, HTRF); conditions: OVCAR-5, read-out: cAMP assay in OVCAR 5 cells Emax, maximal intracellular cAMP relative to H2-relaxin in the same test occasion
T1 sequence (Q9HBX9 1-757): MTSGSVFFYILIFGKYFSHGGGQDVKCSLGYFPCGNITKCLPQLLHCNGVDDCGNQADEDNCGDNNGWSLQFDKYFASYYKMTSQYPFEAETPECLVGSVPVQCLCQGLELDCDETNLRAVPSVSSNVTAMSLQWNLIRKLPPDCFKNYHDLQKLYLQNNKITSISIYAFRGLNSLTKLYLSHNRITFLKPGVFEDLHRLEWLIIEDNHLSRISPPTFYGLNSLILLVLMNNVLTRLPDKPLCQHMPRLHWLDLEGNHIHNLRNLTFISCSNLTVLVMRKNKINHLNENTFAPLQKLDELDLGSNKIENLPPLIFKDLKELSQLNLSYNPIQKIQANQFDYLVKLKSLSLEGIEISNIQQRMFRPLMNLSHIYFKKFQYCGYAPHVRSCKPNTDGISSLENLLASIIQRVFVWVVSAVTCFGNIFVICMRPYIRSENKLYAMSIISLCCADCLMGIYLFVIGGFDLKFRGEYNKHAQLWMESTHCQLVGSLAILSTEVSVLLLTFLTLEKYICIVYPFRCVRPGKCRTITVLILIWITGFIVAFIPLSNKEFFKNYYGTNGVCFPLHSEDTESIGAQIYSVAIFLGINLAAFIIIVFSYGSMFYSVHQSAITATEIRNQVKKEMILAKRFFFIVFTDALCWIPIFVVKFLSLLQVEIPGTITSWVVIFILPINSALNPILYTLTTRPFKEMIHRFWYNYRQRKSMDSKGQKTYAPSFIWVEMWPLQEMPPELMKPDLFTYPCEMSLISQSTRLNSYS

| Emax [%] | Compound |
| --- | --- |
| 104 | CCCC[C@H](NC(=O)CNC(=O)[C@H](CCC(=O)O)NC(=O)C(C)(C)NC(=O)C(C)(C)NC(=O)[C@@H](NC(=O)[C@H](CCC(N)=O)NC(=O)[C@H](C)NC(=O)[C@H](CCCNC(=N)N)NC(=O)[C@@H](NC(=O)[C@H](CCCCN)NC(=O)[C@H](CCC(=O)O)NC(=O)[C@H](CCCNC(=N)N)NC(=O)CNC(=O)[C@H](CCC(=O)O)NC(=O)[C@H](CC(C)C)NC(C)=O)C(C)C)[C@@H](C)CC)C(=O)N[C@@H](CO)C(=O)N[C@H](C(=O)N[C@@H](Cc1cccc2ccccc12)C(=O)N[C@@H](CO)C(=O)N[C@@H](CCCCN)C(=O)N[C@@H](CCCNC(=N)N)C(=O)N[C@@H](CCCCN)C(=O)N[C@@H](CCCCN)C(N)=O)[C@@H](C)O [compound 15] (Ac-LEGREKVRAQI[Aib][Aib]EG[Nle]ST[1Nal]SKRKK-NH2) |
| 104 | CCCC[C@H](NC(=O)CNC(=O)[C@H](CCC(=O)O)NC(=O)C(C)(C)NC(=O)C(C)(C)NC(=O)[C@@H](NC(=O)[C@H](CCC(N)=O)NC(=O)[C@H](C)NC(=O)[C@H](CCCNC(=N)N)NC(=O)[C@@H](NC(=O)[C@H](CCCCN)NC(=O)[C@H](CCC(=O)O)NC(=O)[C@H](CCCNC(=N)N)NC(=O)CNC(=O)[C@H](CCC(=O)O)NC(=O)[C@H](CC(C)C)NC(C)=O)C(C)C)[C@@H](C)CC)C(=O)N[C@@H](CO)C(=O)N[C@H](C(=O)N[C@@H](Cc1cccc2ccccc12)C(=O)N[C@@H](CO)C(=O)N[C@@H](CCCCN)C(=O)N[C@@H](CCCNC(=N)N)C(N)=O)[C@@H](C)O [compound 37] (Ac-LEGREKVRAQI[Aib][Aib]EG[Nle]ST[1Nal]SKR-NH2) |
| 94 | CCCC[C@H](NC(=O)CNC(=O)[C@H](CCC(=O)O)NC(=O)C(C)(C)NC(=O)C(C)(C)NC(=O)[C@@H](NC(=O)[C@H](CCCCNC(C)=O)NC(=O)[C@H](C)NC(=O)[C@H](CCCNC(=N)N)NC(=O)[C@@H](NC(=O)[C@H](CCCCN)NC(=O)[C@H](CCC(=O)O)NC(=O)[C@H](CCCNC(=N)N)NC(=O)CNC(=O)[C@H](CCC(=O)O)NC(=O)[C@H](CC(C)C)NC(C)=O)C(C)C)[C@@H](C)CC)C(=O)N[C@@H](CO)C(=O)N[C@H](C(=O)N[C@@H](Cc1c[nH]c2ccccc12)C(=O)N[C@@H](CO)C(=O)NC(C)(C)C(=O)N[C@@H](CCCNC(=N)N)C(=O)N[C@@H](CCCCN)C(N)=O)[C@@H](C)O [compound 47] (Ac-LEGREKVRAK(Ac)I[Aib][Aib]EG[Nle]STWS[Aib]RK-NH2) |
| 95 | CCCC[C@H](NC(=O)CNC(=O)[C@H](CCC(=O)O)NC(=O)C(C)(C)NC(=O)C(C)(C)NC(=O)[C@@H](NC(=O)[C@H](CCC(N)=O)NC(=O)[C@H](C)NC(=O)[C@H](CCCNC(=N)N)NC(=O)[C@@H](NC(=O)[C@H](CCCCN)NC(=O)[C@H](CCC(=O)O)NC(=O)[C@H](CCCNC(=N)N)NC(=O)CNC(=O)[C@H](CCC(=O)O)NC(=O)[C@H](CC(C)C)NC(C)=O)C(C)C)[C@@H](C)CC)C(=O)N[C@@H](CO)C(=O)N[C@H](C(=O)N[C@@H](Cc1c[nH]c2ccccc12)C(=O)N[C@H](C(=O)NC(C)(C)C(=O)N[C@@H](CCCNC(=N)N)C(=O)N[C@@H](CCCCN)C(=O)N[C@@H](CCCCN)C(N)=O)[C@@H](C)O)[C@@H](C)O [compound 23] (Ac-LEGREKVRAQI[Aib][Aib]EG[Nle]STWT[Aib]RKK-NH2) |
| 98 | CCCC[C@H](NC(=O)CNC(=O)[C@H](CCC(=O)O)NC(=O)C(C)(C)NC(=O)C(C)(C)NC(=O)[C@@H](NC(=O)[C@H](CCCCNC(C)=O)NC(=O)[C@H](C)NC(=O)[C@H](CCCNC(=N)N)NC(=O)[C@@H](NC(=O)[C@H](CCCCN)NC(=O)[C@H](CCC(=O)O)NC(=O)[C@H](CCCNC(=N)N)NC(=O)CNC(=O)[C@H](CCC(=O)O)NC(=O)[C@H](CC(C)C)NC(C)=O)C(C)C)[C@@H](C)CC)C(=O)N[C@@H](CO)C(=O)N[C@H](C(=O)N[C@@H](Cc1cccc2ccccc12)C(=O)N[C@@H](CO)C(=O)NC(C)(C)C(=O)N[C@@H](CCCNC(=N)N)C(=O)N[C@@H](CCCCN)C(=O)N[C@@H](CCCCNC(C)=O)C(N)=O)[C@@H](C)O [compound 29] (Ac-LEGREKVRAK(Ac)I[Aib][Aib]EG[Nle]ST[1Nal]S[Aib]RKK(Ac)-NH2) |
| 97 | CC[C@H](C)[C@H](NC(=O)[C@H](CCC(N)=O)NC(=O)[C@H](C)NC(=O)[C@H](CCCNC(=N)N)NC(=O)[C@@H](NC(=O)[C@H](CCCCN)NC(=O)[C@H](CCC(=O)O)NC(=O)[C@H](CCCNC(=N)N)NC(=O)CNC(=O)[C@H](CCC(=O)O)NC(=O)[C@@H](N)CC(C)C)C(C)C)C(=O)NC(C)(C)C(=O)N[C@H](C(=O)N[C@@H](CCC(=O)O)C(=O)NCC(=O)N[C@@H](CCSC)C(=O)N[C@@H](CO)C(=O)N[C@@H](CCCCN)C(=O)N[C@@H](Cc1c[nH]c2ccccc12)C(=O)N[C@@H](CO)C(=O)N[C@@H](CCCCN)C(=O)N[C@@H](CCCNC(=N)N)C(=O)N[C@@H](CCCCN)C(=O)N[C@@H](CCCCN)C(N)=O)[C@@H](C)CC [compound 6] (H-LEGREKVRAQI[Aib]IEGMSKWSKRKK-NH2) |
| 95 | CCCC[C@H](NC(=O)CNC(=O)[C@H](CCC(=O)O)NC(=O)C(C)(C)NC(=O)C(C)(C)NC(=O)[C@@H](NC(=O)[C@H](CCCCNC(C)=O)NC(=O)[C@H](C)NC(=O)[C@H](CCCNC(=N)N)NC(=O)[C@@H](NC(=O)[C@H](CCCCN)NC(=O)[C@H](CCC(=O)O)NC(=O)[C@H](CCCNC(=N)N)NC(=O)CNC(=O)[C@H](CCC(=O)O)NC(=O)[C@H](CC(C)C)NC(C)=O)C(C)C)[C@@H](C)CC)C(=O)N[C@@H](CO)C(=O)N[C@H](C(=O)N[C@@H](Cc1c[nH]c2ccccc12)C(=O)N[C@@H](CO)C(=O)NC(C)(C)C(=O)N[C@@H](CCCNC(=N)N)C(=O)N[C@@H](CCCCN)C(=O)N[C@@H](CC(C)C)C(N)=O)[C@@H](C)O [compound 32] (Ac-LEGREKVRAK(Ac)I[Aib][Aib]EG[Nle]STWS[Aib]RKL-NH2) |
| 102 | CC[C@H](C)[C@H](NC(=O)[C@H](CCC(N)=O)NC(=O)[C@H](C)NC(=O)[C@H](CCCNC(=N)N)NC(=O)[C@@H](NC(=O)[C@H](CCCCN)NC(=O)[C@H](CCC(=O)O)NC(=O)[C@H](CCCNC(=N)N)NC(=O)CNC(=O)[C@H](CCC(=O)O)NC(=O)C(C)(C)NC(C)=O)C(C)C)C(=O)NC(C)(C)C(=O)NC(C)(C)C(=O)N[C@@H](CCC(=O)O)C(=O)NCC(=O)N[C@@H](CCSC)C(=O)N[C@@H](CO)C(=O)N[C@@H](CCCCN)C(=O)N[C@@H](Cc1c[nH]c2ccccc12)C(=O)N[C@@H](CO)C(=O)N[C@@H](CCCCN)C(=O)N[C@@H](CCCNC(=N)N)C(=O)N[C@@H](CCCCN)C(=O)N[C@@H](CCCCN)C(N)=O [compound 11] (Ac-[Aib]EGREKVRAQI[Aib][Aib]EGMSKWSKRKK-NH2) |
| 103 | CCCC[C@H](NC(=O)CNC(=O)[C@H](CCC(=O)O)NC(=O)C(C)(C)NC(=O)C(C)(C)NC(=O)[C@@H](NC(=O)[C@H](CCC(N)=O)NC(=O)[C@H](C)NC(=O)[C@H](CCCNC(=N)N)NC(=O)[C@@H](NC(=O)[C@H](CCCCN)NC(=O)[C@H](CCC(=O)O)NC(=O)[C@H](CCCNC(=N)N)NC(=O)CNC(=O)[C@H](CCC(=O)O)NC(=O)[C@H](CC(C)C)NC(C)=O)C(C)C)[C@@H](C)CC)C(=O)N[C@@H](CO)C(=O)N[C@@H](CCCCN)C(=O)N[C@@H](Cc1cccc2ccccc12)C(=O)N[C@@H](CO)C(=O)N[C@@H](CCCCN)C(=O)N[C@@H](CCCNC(=N)N)C(N)=O [compound 36] (Ac-LEGREKVRAQI[Aib][Aib]EG[Nle]SK[1Nal]SKR-NH2) |
| 104 | CC[C@H](C)[C@H](NC(=O)[C@H](CCC(N)=O)NC(=O)[C@H](C)NC(=O)[C@H](CCCNC(=N)N)NC(=O)[C@@H](NC(=O)[C@H](CCCCN)NC(=O)[C@H](CCC(=O)O)NC(=O)[C@H](CCCNC(=N)N)NC(=O)CNC(=O)[C@H](CCC(=O)O)NC(=O)[C@H](CC(C)C)NC(C)=O)C(C)C)C(=O)NC(C)(C)C(=O)NC(C)(C)C(=O)N[C@@H](CCC(=O)O)C(=O)NCC(=O)N[C@@H](CCSC)C(=O)N[C@@H](CO)C(=O)N[C@@H](CCCCN)C(=O)N[C@@H](Cc1c[nH]c2ccccc12)C(=O)N[C@@H](CO)C(=O)NC(C)(C)C(=O)N[C@@H](CCCNC(=N)N)C(=O)N[C@@H](CCCCN)C(N)=O [compound 18] (Ac-LEGREKVRAQI[Aib][Aib]EGMSKWS[Aib]RK-NH2) |
| 96 | CCCC[C@H](NC(=O)CNC(=O)[C@H](CCC(=O)O)NC(=O)C(C)(C)NC(=O)C(C)(C)NC(=O)[C@@H](NC(=O)C(C)(C)NC(=O)[C@H](CCCCNC(C)=O)NC(=O)[C@H](CCCNC(=N)N)NC(=O)[C@@H](NC(=O)[C@H](CCCCN)NC(=O)[C@H](CCC(=O)O)NC(=O)[C@H](CCCNC(=N)N)NC(=O)CNC(=O)[C@H](CCC(=O)O)NC(=O)[C@H](CC(C)C)NC(C)=O)C(C)C)[C@@H](C)CC)C(=O)N[C@@H](CO)C(=O)N[C@H](C(=O)N[C@@H](Cc1c[nH]c2ccccc12)C(=O)N[C@@H](CO)C(=O)NC(C)(C)C(=O)N[C@@H](CCCNC(=N)N)C(=O)N[C@@H](CCCCN)C(=O)N[C@@H](CCCCN)C(N)=O)[C@@H](C)O [compound 34] (Ac-LEGREKVRK(Ac)[Aib]I[Aib][Aib]EG[Nle]STWS[Aib]RKK-NH2) |

same assay, conditions: cAMP assay in OVCAR 5 cells EC50 (nM), OVCAR5 cells expressing endogenous RXFP1; cAMP by HTRF; 30 min at 37° C.; 1 mM IBMX

| EC50 [nM] | Compound |
| --- | --- |
| 24.4 | CCCC[C@H](NC(=O)CNC(=O)[C@H](CCC(=O)O)NC(=O)C(C)(C)NC(=O)C(C)(C)NC(=O)[C@@H](NC(=O)[C@H](CCC(N)=O)NC(=O)[C@H](C)NC(=O)[C@H](CCCNC(=N)N)NC(=O)[C@@H](NC(=O)[C@H](CCCCN)NC(=O)[C@H](CCC(=O)O)NC(=O)[C@H](CCCNC(=N)N)NC(=O)CNC(=O)[C@H](CCC(=O)O)NC(=O)[C@H](CC(C)C)NC(C)=O)C(C)C)[C@@H](C)CC)C(=O)N[C@@H](CO)C(=O)N[C@H](C(=O)N[C@@H](Cc1cccc2ccccc12)C(=O)N[C@@H](CO)C(=O)N[C@@H](CCCCN)C(=O)N[C@@H](CCCNC(=N)N)C(=O)N[C@@H](CCCCN)C(=O)N[C@@H](CCCCN)C(N)=O)[C@@H](C)O [compound 15] (Ac-LEGREKVRAQI[Aib][Aib]EG[Nle]ST[1Nal]SKRKK-NH2) |
